A short description of series [1]: Rat calcinosis cutis/calciphylaxis model (vitamin D3 and FeCl3): skin plaque calcification. In kind it is in vivo, Sprague Dawley rat. As to conditions: for Skin plaque % inhibition of calcification: FeCl3 0.5 mg/kg. The protocol:
The dose-response efficacy of IP4-4,6 derivatives in the prevention and treatment of calcinosis cutis and calciphylaxis (CUA) induced by vitamin D3 and FeCl3 in a rat model was used. The model evaluated the effects of Compound 27 and IP6 on the formation of calcified skin plaques in rats for a duration of 8 days. Animals were sensitized at low concentration (LC, 35,000 IU/kg) and high concentration (HC, 50,000 IU/kg) doses of vitamin D3. A FeCl3 solution (0.5 mg/kg) was used as challenger to induce the formation of skin plaques. All animals were weighed every day before treatment.
Eighty-six male Sprague Dawley (SD) rats (Envigo Corp., Huntingdon, GB) weighing approximately 250-300 g were used. The animals were fed with a standard LASQCdiet® Rod14-H diet (LASvendi, Soest, DE). The animals were divided in 8 groups, 6 to 12 animals per group, as follows:
The following solutions were prepared: (a) 17,500 IU/mL (LC) and 25,000 IU/mL (HC) vitamin D3 (cholecalciferol, Duphafral D3 1000; Zoetis Inc., Parsippany, NJ, US), (b) 0.3 mg/mL FeCl3 (FeCl3·6H2O, 99%, Scharlab S. L., Barcelona, E S), (c) 30 mg/mL IP6 (660 g/mol phytic acid, pH 6.5-7.7), and (d) 15, 30, and 50 mg/mL Compound 27 (754.45 g/mol free acid, pH 6.5-7.7). All solutions were prepared in a 0.9% (w/v) physiological saline NaCl medium. An application volume of 2 mL/kg was employed.
Group 1—Control (sham), 6 animals. Animals in group 1 were administered subcutaneously physiological saline (0.9% (w/v) NaCl solution daily from D1 to D3 in the interscapular space, and with one saline 0.9% injection at each of the two ventral sites in the thorax on D4. Animals in group 1 were not administered Vit D or FeCl3 solutions.
Group 2—Physiological saline solution low concentration (Vehicle LC): Vit D 35,000 IU/kg, 0.5 mg/kg FeCl3 solution, 10 animals. Vit D at dose 35,000 IU/kg was administered subcutaneously x 3 consecutive days (D1, D2, D3), and one 0.5 mg/kg FeCl3 injection at each of the two ventral sites in the thorax on D4. This group received a daily saline 0.9% s.c. treatment (D1 to D8).
Group 3—Compound 27 60 mg/kg LC: Vit D 35,000 IU/kg, 0.5 mg/kg FeCl3, 10 animals. Vit D at dose 35,000 IU/kg was administered subcutaneously x 3 consecutive days (D1, D2, D3), and one 0.5 mg/kg FeCl3 injection at each of the two ventral sites in the thorax on D4. This group received a daily Compound 27 s.c. treatment at 60 mg/kg dose (D1 to D8).
Group 4—Physiological saline solution high concentration (Vehicle HC): Vit D 50,000 IU/kg, 0.5 mg/kg FeCl3, 12 animals. Vit D at dose 50,000 IU/kg was administered subcutaneously x 3 consecutive days (D1, D2, D3), and one 0.5 mg/kg FeCl3 injection at each of the two ventral sites in the thorax on D4. This group received a daily saline 0.9% s.c. treatment (D1 to D8).
Group 5—IP6 60 mg/kg HC, Vit D 50,000 IU/kg, 0.5 mg/kg FeCl3, 12 animals. Vit D at dose 50,000 IU/kg was administered subcutaneously x 3 consecutive days (D1, D2, D3), and one 0.5 mg/kg FeCl3 injection at each of the two ventral sites in the thorax on D4. This group received a daily IP6 s.c. treatment at 60 mg/kg dose (D1 to D8).
Group 6—Compound 27 30 mg/kg HC, Vit D 50,000 IU/kg, 0.5 mg/kg FeCl3, 12 animals. Vit D at dose 50,000 IU/kg was administered subcutaneously x 3 consecutive days (D1, D2, D3), and one 0.5 mg/kg FeCl3 injection at each of the two ventral sites in the thorax on D4. This group received a daily Compound 27 s.c. treatment at 30 mg/kg dose (D1 to D8).
Group 7—Compound 27 60 mg/kg […], Vit D 50,000 IU/kg, 0.5 mg/kg FeCl3, 12 animals. Vit D at dose 50,000 IU/kg was administered subcutaneously x 3 consecutive days (D1, D2, D3), and one 0.5 mg/kg FeCl3 injection at each of the two ventral sites in the thorax on D4. This group received a daily Compound 27 s.c. treatment at 60 mg/kg dose (D1 to D8).
Group 8—Compound 27 100 mg/kg HC, Vit D 50,000 IU/kg, 0.5 mg/kg FeCl3, 12 animals. […]

For series [2], the system named is abcc6a−/− zebrafish larvae. The experiment in a line: abcc6a−/− zebrafish model of Pseudoxanthoma elasticum: spinal column hypermineralization (Alizarin Red). In kind it is in vivo. The following applies: 3 to 10 dpf. On the procedure:
FIG. 16 depicts an analysis of hypermineralization using Alizarin Red staining in 10 dpf abcc6a^−/− zebrafish larvae. The larvae were kept in E3-medium (n=20) and E3-medium supplemented with Compound 27 1 mM (n=18) from 3 to 10 dpf.
A stable CRISPR/Cas9 abcc6a^−/− zebrafish model characterized for spinal column hypermineralization was used for assaying the efficacy of Compound 27 in the treatment of Pseudoxanthoma elasticum (PXE; Van Gils M, et al., J Invest Dermatol […]; 138:2333-2342).
Abcc6a^−/− larvae were treated with Compound 27 at different concentrations (i.e., 100 μM, 300 μM, and 1 mM) for 7 days, starting at 3 days post fertilization (dpf), with daily refreshment of the medium containing the solved compounds. On 10 dpf, the larvae were euthanized and stained with Alizarin Red to visualize the spinal column hypermineralization, using a Leica M165 FC microscope (Leica Microsystems GmbH, Wetzlar, DE). Semi-quantification of calcification was done through image processing with ImageJ […] (Rasband W, Research Services Branch, NIH, Bethesda, MD, US).

As to “4,6-O-bis(5-acetamidopentyl)-myo-inositol-1,2,3,5-tetrakis(phosphate) octasodium salt [Compound 27]”, the “Skin plaque % inhibition of calcification” value in series [1] (30 mg/kg s.c. daily D1-D8, HC (vitamin D3 50,000 IU/kg)) came to 96.8 ± 0.7 %; in series [1] (60 mg/kg s.c. daily D1-D8, HC (vitamin D3 50,000 IU/kg)), 98.2 ± 0.1 %; in series [1] (60 mg/kg s.c. daily D1-D8, LC (vitamin D3 35,000 IU/kg)), 95.7 ± 0.9 %; in series [1] (100 mg/kg s.c. daily D1-D8, HC (vitamin D3 50,000 IU/kg)), 98.6 ± 0.1 %. Besides, in series [1] (30, 60, 100 mg/kg s.c.), the “Inhibition of the formation of skin plaque” value is “inhibits the formation of skin plaque in rats in a dose-response manner”. In addition, in series [1] (same dose (60 mg/kg)), the “Degree of inhibition of skin plaque calcification compared with IP6” value was “higher than that reached by IP6 at the same dose”. In addition, the “Reduction of spinal hypermineralization (in words)” value in series [2] (1 mM in E3-medium, FIG. 16) is given as “Significant reduction of spinal hypermineralization”. Moreover, the “Average reduction of spinal column hypermineralization” value in series [2] (1 mM in medium) was 60%. Further, the “Physiological calcification and bone formation” value in series [2] (1 mM in medium) is “conservation of the physiological calcification and bone formation”. For the same substance, the “Significance (p) of reduced spinal hypermineralization vs untreated” value in series [2] (1 mM in medium) is listed as < 0.001. In addition, the Relative calcified area in series [2] (1 mM in medium, untreated 35.2) is 14.17.
